Data set [1] has as its system red blood cells from laboratory mice. The experiment in a line: Erythrotoxicity (hemolytic activity). To be noted: 100 μM, 1, 3 and 5 h of incubation. Format: cell-based. The method, then: No significant hemolytic activity was detected at a concentration of 1 μM (Figure 3B).
(§1) To evaluate the erythrotoxicity, antioxidant and membrane-protective activity of the compounds, we used 0.5% (v/v) suspension of red blood cells from laboratory mice in phosphate-buffered saline (PBS, pH 7.4). The test substances were previously dissolved in ethanol. Erythrotoxicity (hemolytic activity) was evaluated by the degree of hemolysis of red blood cells 1–5 h after the introduction of solutions of the compounds. Membrane-protective and antioxidant activity was determined by the degree of inhibition of H2O2-induced hemolysis. For this purpose, 30 min after the erythrocyte suspension was added to the solutions of the test compounds, hemolysis was initiated with a solution of hydrogen peroxide (0.006%). Then, the reaction mixture was incubated in a thermostatic shaker Biosan ES-20 with slow stirring at 37 °C for 5 h. An aliquot was taken from the incubation medium every hour, centrifuged for 5 min (1600× g), and the degree of hemolysis was determined by the hemoglobin content in the supernatant on a ThermoSpectromic Genesys 20 spectrophotometer (Thermo Fisher Scientific, Waltham, MA, USA) at 524 nm. The percentage of hemolysis was calculated in relation to the complete hemolysis of the sample. Each experiment was designed with 4–8 replicates. Statistical data processing and charting were performed using the Microsoft Office Excel 2007 software package (Microsoft, Redmond, WA, USA). The data represent the mean ± SE.
Figure 3 Hemolytic activity of unsymmetrical disulfides at the concentration of 100 μM (A) and 1 μM (B) after 1, 3 and 5 h of incubation.

Data set [2] relates to Candida albicans 703 clinical isolate. The experiment in a line: Antifungal MIC, broth microdilution (CLSI M27-A3). To be noted: for MIC: Candida albicans, 24 h, read-out: MIC C. albicans 703 Clinical Isolate.
Data set [3] in a line: Cytotoxicity, MTT on EBL cells. Conditions: bovine, EBL cells (embryonic bovine lung).
Description: (§3) Cytotoxicity of compounds was determined using the microtetrazolium test (MTT) on EBL cells. The cells were cultured in DMEM—Dulbecco’s Modified Eagle’s Medium (Sigma Aldrich, St. Louis, MO, USA) supplemented with 10% FBS, 2 mM L-glutamine, 100 µg/mL penicillin and 100 µg/mL streptomycin. Cells were seeded in 96-well plates with the density of 3000 cells per well and left overnight to allow for the attachment. Cells were next cultured at 37 °C and 5% CO2 in the presence of compounds of interest at various concentrations from 1.25 to 160 µg/mL. After 24 h of cultivation the cells were subjected to MTT-assay. The formazan was solubilized by DMSO and the optical density was measured on Tecan Infinite 200Pro at 570 nm. The concentration required to inhibit cellular dehydrogenase activity by 50% (CC50 value) was calculated by using GraphPad Prism 6.0 software (GraphPad software, San Diego, CA, USA).
The test system of data set [4] is S. aureus ATCC 29213 (MSSA). The experiment in a line: Antibacterial MIC, broth microdilution (EUCAST). Format: cell-based, Staphylococcus aureus. Conditions: Staphylococcus aureus, 24 h, Mueller-Hinton broth. How it is done:
(§2) Minimum inhibitory concentrations (MICs) of compounds was determined by the broth microdilution assay in 96-well plates (Eppendorf, Hamburg, Germany) according to the EUCAST rules for antimicrobial susceptibility testing in full Mueller-Hinton broth (MH). The concentrations of compounds to be tested ranged from 1 to 2048 µg/mL. The MIC was determined as the lowest concentration of an antibiotic for which no visible bacterial growth could be observed after 24 h of incubation.
For orientation: In broth dilution the organism is exposed to a series of concentrations in liquid medium.

In data set [5] the test system is S. aureus MRSA clinical isolate. The data set is described as follows: Antibacterial MIC, broth microdilution (EUCAST). Format: cell-based, Staphylococcus aureus. To be noted: Staphylococcus aureus, MRSA; 24 h, Mueller-Hinton broth. How it is done: as §2
Data set [6] deals with S. typhimurium TA98, TA100 and TA102 strains. The experiment in a line: Mutagenicity in the Ames test (spot-test). Format: cell-based, Salmonella typhimurium. Conditions: strain in which mutagenicity was found; NF = not found. How it is done: The mutagenicity of compounds was evaluated in the Ames test with S. typhimurium TA98, TA100 and TA102 strains as described in [38]. The spot-test modification has been applied to avoid false-negative results driven with antibacterial activity of compounds. The tested compound was considered to be mutagenic if the number of revertant colonies increased more than 2 times close to the filter paper with compound.

The subject of data set [7] is influenza virus A/Puerto Rico/8/34 (H1N1). The data set is described as follows: Antiviral cell protection assay in MDCK cells. Format: cell-based. To be noted: H1N1, MDCK, 72 h.
Another data set concerns P. aeruginosa ATCC 27853. The experiment in a line: Antibacterial MIC, broth microdilution (EUCAST). Format: cell-based, Pseudomonas aeruginosa. To be noted: Pseudomonas aeruginosa, ATCC27853; 24 h, Mueller-Hinton broth. How it is done:
as §2

The nature of another data set: in vitro. Conditions: dog.
Data set [8] can be described thus: Antioxidant activity: inhibition of lipid peroxidation (TBA-RS) in brain homogenates. Details: species or system mice. Conditions: 100 μM and 1 mM, 1 h after initiation of LPO (ascorbate/Fe2+). The method, then:
The antioxidant activity of monoterpenylhetaryl disulfides was evaluated for their in vitro ability to inhibit lipid peroxidation (LPO) processes in the brain lipids of laboratory mice. The brain was removed and homogenized (10%) in physiological saline (pH = 7.4) and centrifuged for 10 min. Then, an aliquot of the supernatant (S1) was taken, into which the test compounds were added as solutions in ethanol (final concentration of 100 μM and 1 mM). After 30 min, LPO was initiated by adding a freshly prepared solution of FeSO4 and ascorbic acid. Then, the test samples were incubated for one hour at 37 °C with slow stirring in a thermostatic Biosan ES-20 shaker (Biosan, Riga, Latvia). The concentration of LPO secondary products reacting with 2-thiobarbituric acid (thiobarbituric acid reactive substances, TBA-RS) was determined using ThermoSpectromic Genesys 20 spectrophotometer (Thermo Fisher Scientific, Waltham, MA, USA) at λ = 532 nm, the extinction coefficient 1.56 × 10^5 M^−1cm^−1 was used for calculations.
Figure 2 Effect of unsymmetrical disulfides and Trolox (T) at concentrations of 100 μM and 1 mM on the content of TBA-RS in the brain homogenate in an hour after the initiation of LPO (ascorbate/Fe^2+ initiators). C—control sample containing no test compounds; I—intact sample in which LPO was not initiated.

The test system of data set [9] is red blood cells from laboratory mice. The experiment in a line: Membrane-protective activity: H2O2-induced hemolysis of erythrocytes. Format: cell-based. Conditions: 1 μM, 1–5 h. The method, then: The membrane-protective properties of the compounds were evaluated in the model of oxidative hemolysis of erythrocytes at a concentration of 1 μM in order to avoid the effect of hemolytic activity.
as §1
Figure 4 Effect of unsymmetrical disulfides and Trolox (T) at a concentration of 1 μM on the level of H2O2-induced hemolysis of erythrocytes after 1–5 h of incubation.

The test system of data set [10] is EBL cells (embryonic bovine lung). The experiment in a line: Cytotoxicity, MTT on EBL cells.
Description: as §3

This note sets out measurements from article PMC9416111, “Synthesis and Biological Activity of Unsymmetrical Monoterpenylhetaryl Disulfides” (Molecules, 2022).

Structures are written as SMILES. Values after ≈ are worked out from the molar mass of the structure shown.

What is called MIC is the least concentration at which growth counts as inhibited. The IC50 is the point on the concentration scale where inhibition reaches its midpoint. For the molecule `CC(C)[C@@H]1CC[C@@H](C)C[C@@H]1SSc1nc2ccccc2s1` [Compound 1a, 2-(((1S,2S,5R)-2-isopropyl-5-methylcyclohexyl)disulfanyl)benzo[d]thiazole], the “hemolytic activity (erythrotoxicity), in words” value in [1] is “Low hemolytic activity”. Further, the MIC in data set [2] turned out to be 512 µg/mL (≈ 1520 µM); in [4], 16 µg/mL (≈ 47.4 µM); in data set [5] it was 16 µg/mL (≈ 47.4 µM); against P. aeruginosa ATCC 27853 it was 16 µg/mL (≈ 47.4 µM). The molecule further gave a CC50 at 24 h in data set [3] of 11.7 µg/mL (≈ 34.7 µM). Further, the “Mutagenicity in the Ames Test” value in data set [6] is listed as “TA 100”. In data set [7], this molecule registered a half-inhibitory concentration (IC50) of 5 ± 1 µM. The CC50 in the data set “in vitro” was found to be 36 ± 3 µM.
Regarding `Cc1cc(C)nc(SS[C@H]2C[C@H](C)CC[C@H]2C(C)C)n1` [Compound 1b, 2-(((1S,2S,5R)-2-isopropyl-5-methylcyclohexyl)disulfanyl)-4,6-dimethylpyrimidine], the MIC in [2] is 512 µg/mL (≈ 1650 µM); in data set [4] it was 16 µg/mL (≈ 51.5 µM); in data set [5] it was 32 µg/mL (≈ 103 µM); against P. aeruginosa ATCC 27853 it was 32 µg/mL (≈ 103 µM). Moreover, the CC50 at 24 h in data set [3] was 14 µg/mL (≈ 45.1 µM). Besides, the “Mutagenicity in the Ames Test” value in data set [6] is “TA 102”. The IC50 in data set [7] came to 13 ± 2 µM. In “in vitro”, this molecule had a CC50 of 29 ± 2 µM.
Take `COC(=O)c1cccnc1SS[C@H]1C[C@H]2C[C@@H]([C@@H]1CO)C2(C)C` [Compound 3c, Methyl 2-(((1S,2R,3S,5R)-2-(hydroxymethyl)-6,6-dimethylbicyclo[3.1.1]hept-3-yl)disulfanyl)pyridine-3-carboxylate]: the “antioxidant activity (inhibition of oxidation of brain lipids), in words” value in data set [8] is “highest antioxidant activity”. Besides, the minimum inhibitory concentration (MIC) in [2] is 1020 µg/mL (≈ 2900 µM); in [4], 64 µg/mL (≈ 181 µM); in [5] it was 32 µg/mL (≈ 90.5 µM); in the data set with P. aeruginosa ATCC 27853, 1020 µg/mL (≈ 2900 µM). In data set [3], this molecule registered a CC50 at 24 h of 8.1 µg/mL (≈ 22.9 µM). For the same molecule, the “membrane-protective activity, in words” value in data set [9] is “most active”. For the same molecule, in data set [7], 255 ± 31 µM corresponded to half-maximal inhibition (IC50). Further, the CC50 in “in vitro” was more than 283 µM.
By melting point is commonly meant the temperature, or range, at which the solid turns liquid. In turn, `CC1(C)[C@H]2C[C@H](SSc3ncccc3C(=O)O)[C@@H](CO)[C@@H]1C2` [Compound 3d, 2-(((1S,2R,3S,5R)-2-(hydroxymethyl)-6,6-dimethylbicyclo[3.1.1]heptan-3-yl)disulfanyl)nicotinic acid] came in with a melting point of 99 °C. In data set [1], the “hemolytic activity (erythrotoxicity), in words” value is given as “Low hemolytic activity”. In [2], the “antifungal activity against Candida albicans 703, in words” value was “active against yeast” and the MIC came to 32 µg/mL (≈ 94.3 µM). The “cytotoxicity on EBL cells, in words” value in data set [10] is reported as “least toxicity”. This molecule also yielded a CC50 at 24 h in data set [3] of 118 µg/mL (≈ 347 µM). This molecule came in with an MIC in [4] of 512 µg/mL (≈ 1510 µM). The molecule further came in with an MIC in data set [5] of 1020 µg/mL (≈ 3020 µM). The same molecule gave a half-maximal inhibitory concentration (IC50) in data set [7] of 132 ± 16 µM. The molecule also gave a minimal inhibitory concentration (MIC) in the data set on P. aeruginosa ATCC 27853 of 1020 µg/mL (≈ 3020 µM). The same molecule returned a CC50 in “in vitro” of 285 ± 14 µM.
For `COC(=O)c1cccnc1SSC[C@@H]1[C@@H](O)C[C@H]2C[C@@H]1C2(C)C` [Compound 4c, Methyl 2-((((1S,2S,3S,5R)-3-hydroxy-6,6-dimethylbicyclo[3.1.1]heptan-2-yl)methyl)disulfanyl)pyridine-3-carboxylate], the “antioxidant activity (inhibition of oxidation of brain lipids), in words” value in data set [8] was “highest antioxidant activity”. For the same molecule, the minimum inhibitory concentration (MIC) was 1020 µg/mL (≈ 2900 µM) in [2], 1020 µg/mL (≈ 2900 µM) in [4], more than 1020 µg/mL in [5] and more than 1020 µg/mL against P. aeruginosa ATCC 27853. Further, in data set [9], the “membrane-protective activity, in words” value is “most active”. Moreover, half-maximal inhibition in [7] (IC50) required 34 ± 4 µM. This molecule also registered a CC50 in the data set “in vitro” of 40 ± 2 µM.
